Article PMC10526274, “Epithelial-Immune Cell Crosstalk Determines the Activation of Immune Cells In Vitro by the Human Cathelicidin LL-37 at Low Physiological Concentrations” (Biomolecules, 2023)
Several values for one entry are separate records, joined by “and”; a condition that tells them apart may be missing. Identical values can stand only once.

System: monocyte-derived dendritic cells (moDCs)
Test: Multiplex xMAP cytokine levels, moDCs alone stimulated with LL-37
Format: cell-based, human
Details: 1 µM LL-37, 24 h
Procedure: Peripheral blood mononuclear cells (PBMCs) from a healthy donor were purchased from the American Type Culture Collection (ATCC PCS-800-011). Blood monocytes were isolated from PBMCs by plastic adhesion. Mature monocyte-derived dendritic cells (moDCs) were generated in vitro from peripheral blood monocytes, according to Nair et al.. Briefly, monocytes were cultured in a humidified CO2-incubator (5% CO2, 37 °C) in the complete RPMI-1640 medium (Gibco) with 10% FBS, antibiotics, and supplemented with a cytokine cocktail containing 500 U/mL rhIL-4 and 800 U/mL rhGM-CSF (both Sci-Store, Moscow, Russia). On the third day, the medium was replaced by the same fresh medium with FBS, antibiotics, and the cytokine cocktail. Induction of maturation of the immature monocyte-derived dendritic cells was performed on the 5th day by replacing the medium with the complete RPMI-1640 medium (Gibco) with 10% FBS and antibiotics, supplemented with a cytokine cocktail containing 500 U/mL rhIL-4, 800 U/mL rhGM-CSF (both Sci-Store, Moscow, Russia), and 100 U/mL rhTNF-α (Sigma-Aldrich), and subjected to subsequent incubation of the culture for 4 more days.
Primary blood monocytes, moDCs, and NKT cells were seeded in 600 µL of complete RPMI-1640 with 10% Human AB serum (Capricorn Scientific, Ebsdorfergrund, Germany) and supplemented with 1X antibiotic–antimycotic solution into the wells of 24-well plates at a density of 3–7 × 10^5 cells/well 24 h before the experiment. Then, 24 h later, the medium in each well was replaced by the same medium with 1 µM of LL-37 for the sample wells or fresh medium alone for the control wells, and the permeable inserts with the Caco-2 monolayer with TEER > 400 Ω × cm^2, containing 400 μL of the complete medium in their apical chamber, were immediately placed into the appropriate wells. Also, inserts with the Caco-2 monolayer were placed in cell-free wells of 24-well plates in the same complete RPMI-1640 medium with or without 1 µM of LL-37 as controls. Cells were kept in a CO2-incubator (5% CO2, 37 °C) for another 24 h. Then, culture medium from each well was collected, centrifuged, and frozen at −70 °C.
To quantitatively evaluate a broad spectrum of analytes secreted by human cell cultures at the protein level, multiplex xMAP technology was used. The chosen panel (cat. #HCYTA-60K-PX48, Merck, Darmstadt, Germany) included 48 different magnetic beads with primary antibodies to the following cytokines, chemokines, and growth factors: CCL11 (Eotaxin-1), Flt-3 ligand, CX3CL1 (Fractalkine), sCD40L, FGF-2, EGF, GROα, GM-CSF, G-CSF, IL-1RA, IL-1α, IL-1β, IL-2, IL-3, IL-4, IL-5, IL-6, IL-7, CXCL8 (IL-8), IL-9, IL-10, IL-12p40, IL-12p70, IL-13, IL-15, IL-17A (CTLA8), IL-17E (IL-25), IL-17F, IL-18, IL-22, IL-27, IFNγ, IFNα2, CXCL10 (IP-10), CCL2 (MCP-1), CCL7 (MCP-3), CCL22 (MDC), CXCL9 (MIG), CCL3 (MIP-1α), CCL4 (MIP-1β), CCL5 (RANTES), M-CSF, PDGF-AA, PDGF-AB/BB, TNFα, TNFβ, TGFα, and VEGF-A. The assay was performed in accordance with the manufacturer’s instructions with overnight incubation of the samples with primary antibodies, and the plate was read on a MAGPIX System (Merck) using the xPONENT 4.2 software (Merck). The acquired fluorescence data were analyzed by the MILLIPLEX Analyst v5.1 software (Merck), which realized an advanced curve-fitting algorithm. Levels of the analytes in control and experimental samples were compared with an unpaired two-sample t-test using GraphPad Prism v.8.0.1 (GraphPad Software, Inc., San Diego, CA, USA). The p-values ≤ 0.05 were considered significant.

LL-37: the only human cathelicidin, host defense antimicrobial peptide of 37 a.a. residues, produced by solid-phase peptide synthesis
FLT-3L level (n=2, control 0.57): 0.51 pg/mL | IL-2 level (n=2, control 0.91): 0.91 pg/mL | IL-4 level (n=2, control 1.14): 1.31 pg/mL | TNFb level (n=2, control 1.49): 1.3 pg/mL | IL-3 level (n=2, control 1.55): 0.91 pg/mL | IL-18 level (n=2, control 1.61): 0.63 pg/mL | VEGFa level (n=2, control 2.82): 4.61 pg/mL | IL-15 level (n=2, control 4.12): 4.36 pg/mL | IL-5 level (n=2, control 4.63): 3.23 pg/mL | IFNg level (n=2, control 5.89): 5.02 pg/mL | EGF level (n=2, control 7.65): 6.75 pg/mL | IL-9 level (n=2, control 8.22): 7.84 pg/mL | IL-1b level (n=2, control 9.37): 7 pg/mL | IFNa2 level (n=2, control 10.16): 11.65 pg/mL | IL-1RA level (n=2, control 11.72): 11.72 pg/mL | GM-CSF level (n=2, control 13.02): 10.06 pg/mL | IL-22 level (n=2, control 13.22): 11.11 pg/mL | G-CSF level (n=2, control 20.3): 13.54 pg/mL | PDGF-AA level (n=2, control 24.8): 25.69 pg/mL | TGF-a level (n=2, control 25.07): 20.52 pg/mL | IL-6 level (n=2, control 27.8): 30.65 pg/mL | Fractalkine level (n=2, control 28.72): 25.92 pg/mL | IL-13 level (n=2, control 36.28): 29.87 pg/mL | TNFa level (n=2, control 40.81): 40.03 pg/mL | FGF-2 level (n=2, control 48.6): 47.27 pg/mL | GROa level (n=2, control 51.39): 53.94 pg/mL | IL-27 level (n=2, control 55.75): 59.83 pg/mL | IL-12 (p40) level (n=2, control 61.22): 61.22 pg/mL | IP-10 level (n=2, control 66.42): 57.64 pg/mL | PDGF-AB/BB level (n=2, control 72.4): 70.07 pg/mL | IL-10 level (n=2, control 89.23, p = 0.0058): 62 pg/mL and 62.12 pg/mL | sCD40L level (n=2, control 98.84): 95.47 pg/mL | M-GSF level (n=2, control 200.96): 185.65 pg/mL | RANTES level (n=2, control 423.03): 417.4 pg/mL | MCP-3 level (n=2, control 573.83): 545.69 pg/mL | MIP-1b level (n=2, control 2042): 2065 pg/mL | MIP-1a level (n=2, control 2533): 2368 pg/mL | MCP-1 level (n=2, control 3176): 2573 pg/mL | IL-8 level (n=2, control 4102): 4051 pg/mL | MIG level (n=2, control 27057): 23618 pg/mL | IL-7 level (n=2, control <0.30): <0.30↓ pg/ml | IL-17A level (n=2, control <0.70): <0.70↓ pg/ml | IL-1a level (n=2, control <1.30): <1.30↓ pg/ml | IL-12 (p70) level (n=2, control <1.71): <1.71↓ pg/ml | Eotaxin level (n=2, control <2.91): <2.91↓ pg/ml | IL-17F level (n=2, control <12.19): <12.19↓ pg/ml | IL-17E/IL-25 level (n=2, control <19.43): <19.43↓ pg/ml | MDC level (n=2, control >14590): >14590↑ pg/ml
